# Results published in BindingDB's records for doi:10.1021/acschembio.6b00709 (Technical University of Munich, 2016).
# Assays:
# [1] = molecular target: T1, Ephrin type-A receptor 2 [596-900] (Homo sapiens, UniProt P29317); assay: Kinobeads Competition Assay
# T1 construct: 596-900
# T1 sequence (P29317 whole entry): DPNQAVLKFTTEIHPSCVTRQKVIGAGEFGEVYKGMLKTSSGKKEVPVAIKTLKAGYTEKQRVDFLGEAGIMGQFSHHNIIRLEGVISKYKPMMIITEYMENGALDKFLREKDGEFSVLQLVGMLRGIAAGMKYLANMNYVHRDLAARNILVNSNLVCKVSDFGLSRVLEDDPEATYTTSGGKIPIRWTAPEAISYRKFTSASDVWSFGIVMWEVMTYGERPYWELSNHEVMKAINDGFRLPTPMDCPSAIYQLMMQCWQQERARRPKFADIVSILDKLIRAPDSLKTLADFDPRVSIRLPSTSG
# [2] = molecular target: T1, Ephrin type-A receptor 2 [596-900]; assay: HotSpot Kinase Activity Assay
# From the text: Refer to Reaction Biology Corps.
SMILES,Kd [1] [nM],IC50 [2] [nM]
Cc1ccc(NC(=O)c2ccc(CN3CC[C@H](N(C)C)C3)c(C(F)(F)F)c2)cc1Nc1ncc(-c2cncnc2)cn1 [4-[[(3S)-3-(dimethylamino)pyrrolidin-1-yl]methyl]-N-[4-methyl-3-[(5-pyrimidin-5-ylpyrimidin-2-yl)amino]phenyl]-3-(trifluoromethyl)benzamide],192,17
"CC(C)c1cc(CNc2nc(Nc3cc(C4CC4)[nH]n3)cc(N3CCN(C)CC3)n2)on1 [4-N-(5-cyclopropyl-1H-pyrazol-3-yl)-6-(4-methylpiperazin-1-yl)-2-N-[(3-propan-2-yl-1,2-oxazol-5-yl)methyl]pyrimidine-2,4-diamine]",19,4
CNC(=O)c1nn(C)c2c1C(C)(C)Cc1cnc(Nc3ccc(N4CCN(C)CC4)cc3)nc1-2 [Milciclib],672,–
C[C@@H](NC(=O)c1ncnc(N)c1Cl)c1ncc(C(=O)Nc2cc(C(F)(F)F)c(Cl)cn2)s1 [MLN-2480],484,–
CNC(=O)c1cc(Oc2ccc(NC(=O)Nc3ccc(Cl)c(C(F)(F)F)c3)c(F)c2)ccn1,869,–
"CCS(=O)(=O)c1cccc(-c2cc(C(=O)NC3CCN(C)CC3)c(C)c3[nH]c4ncc(C)cc4c23)c1 [5-(3-ethylsulfonylphenyl)-3,8-dimethyl-N-(1-methylpiperidin-4-yl)-9H-pyrido[2,3-b]indole-7-carboxamide]",198,4.8

# Results, then the compound that gave them:
Kd [1] [nM],IC50 [2] [nM],SMILES
458,–,"COc1cc2c(Nc3ccc(Cl)c(Cl)c3F)ncnc2cc1OCC1C[C@@H]2CN(C)C[C@@H]2C1 (stereo partly drawn) [7-[[(3aS,6aR)-2-methyl-3,3a,4,5,6,6a-hexahydro-1H-cyclopenta[c]pyrrol-5-yl]methoxy]-N-(3,4-dichloro-2-fluorophenyl)-6-methoxyquinazolin-4-amine]"
187,48,COc1cc(Nc2ncc3c(n2)-c2ccc(Cl)cc2C(c2c(F)cccc2OC)=NC3)ccc1C(=O)O [Alisertib]
338,–,CN1CCN(CCOc2cc(OC3CCOCC3)c3c(Nc4c(Cl)ccc5c4OCO5)ncnc3c2)CC1
640,–,COc1cc(N2CCC(N3CCN(C)CC3)CC2)ccc1Nc1ncnc(Nc2ccccc2S(=O)(=O)C(C)C)n1 [ASP-3026]
961,–,COc1cccc(Nc2ncnn3ccc(CN4CC[C@@H](N)[C@H](O)C4)c23)c1 [BMS-690514]
259,–,COc1cc2nccc(Oc3ccc(NC(=O)Nc4cc(C)on4)c(Cl)c3)c2cc1OC [Tivozanib]
